# According to ChEMBL document CHEMBL1155809, “Design, synthesis, and antihepatocellular carcinoma activity of nitric oxide releasing derivatives of oleanolic acid” (J Med Chem, 2008):
# Activity calls are given as the source filed them. The rule behind the calls is not given here.
# Legend:
# HepG2 [1] = assay: Cytotoxicity against human HepG2 cells assessed as cell death at 0.1 uM after 24 hrs by lactate dehydrogenase release assay; type: functional
# Hep 3B2 = assay: Cytotoxicity against human Hep3B cells assessed as levels of nitric oxide production at 100 uM after 30 to 300 mins by colorimetric assay; type: functional, cell-based
# HeLa [2] = assay: Cytotoxicity against human HeLa cells assessed as levels of nitric oxide production at 100 uM after 30 to 300 mins by colorimetric assay; type: functional, cell-based
# PC-3 [3] = assay: Cytotoxicity against human PC3 cells assessed as cell death by lactate dehydrogenase release assay; type: functional, cell-based
# MCF7 [4] = assay: Cytotoxicity against human MCF7 cells assessed as cell death by lactate dehydrogenase release assay; type: functional, cell-based
# [5] = Cytotoxicity against human Hep3B cells assessed as cell death at 0.1 uM after 24 hrs by lactate dehydrogenase release assay; type: functional, Hep 3B2
# PC-3 [6] = assay: Cytotoxicity against human PC3 cells assessed as levels of nitric oxide production at 100 uM after 30 to 300 mins by colorimetric assay; type: functional, cell-based
# [7] = Cytotoxicity against human Hep3B cells assessed as cell death at 0.01 uM after 24 hrs by lactate dehydrogenase release assay; type: functional, Hep 3B2
# HepG2 [8] = assay: Cytotoxicity against human HepG2 cells assessed as cell death at 0.01 uM after 24 hrs by lactate dehydrogenase release assay; type: functional
# HEK293 [9] = assay: Cytotoxicity against human HEK293 cells assessed as levels of nitric oxide production at 100 uM after 30 to 300 mins by colorimetric assay; type: functional, cell-based
# [10] = Cytotoxicity against human Hep3B cells assessed as cell death at 0.001 uM after 24 hrs by lactate dehydrogenase release assay; type: functional, Hep 3B2
# HepG2 [11] = assay: Cytotoxicity against human HepG2 cells assessed as cell death at 1 uM after 24 hrs by lactate dehydrogenase release assay; type: functional
# HeLa [12] = assay: Cytotoxicity against human HeLa cells assessed as cell death by lactate dehydrogenase release assay; type: functional, cell-based
# [13] = Cytotoxicity against human Hep3B cells assessed as cell death at 1 uM after 24 hrs by lactate dehydrogenase release assay; type: functional, Hep 3B2
# HEK293 [14] = assay: Cytotoxicity against HEK293 cells assessed as cell death by lactate dehydrogenase release assay; type: functional, cell-based; conditions: Homo sapiens
# HepG2 [15] = assay: Cytotoxicity against human HepG2 cells assessed as cell death at 0.001 uM after 24 hrs by lactate dehydrogenase release assay; type: functional
# HepG2 [16] = assay: Cytotoxicity against human HepG2 cells assessed as levels of nitric oxide production at 100 uM after 30 to 300 mins by colorimetric assay; type: functional, cell-based
# MCF7 [17] = assay: Cytotoxicity against human MCF7 cells assessed as levels of nitric oxide production at 100 uM after 30 to 300 mins by colorimetric assay; type: functional, cell-based
Structure (SMILES),Activity (HepG2 [1]) [%],Activity (Hep 3B2),Activity (HeLa [2]),Activity (PC-3 [3]),Activity (MCF7 [4]),Activity [5] [%],Activity (PC-3 [6]),Activity [7] [%],Activity (HepG2 [8]) [%],Activity (HEK293 [9]),Activity [10] [%],Activity (HepG2 [11]) [%],Activity (HeLa [12]),Activity [13] [%],Activity (HEK293 [14]),Activity (HepG2 [15]) [%],Activity (HepG2 [16]),Activity (MCF7 [17])
CC(CCOc1no[n+]([O-])c1S(=O)(=O)c1ccccc1)OC(=O)[C@]12CCC(C)(C)C[C@H]1C1=CC[C@@H]3[C@@]4(C)CC[C@H](OC(=O)C(F)(F)F)C(C)(C)[C@@H]4CC[C@@]3(C)[C@]1(C)CC2 (stereo not given in full),0,Active,inactive,inactive,inactive,0,inactive,0,0,inactive,0,0,inactive,0,inactive,0,Active,inactive
CC1(C)CC[C@]2(C(=O)O)CC[C@]3(C)C(=CC[C@@H]4[C@@]5(C)CC[C@H](OC(=O)CCC(=O)OCC#CCOc6no[n+]([O-])c6S(=O)(=O)c6ccccc6)C(C)(C)[C@@H]5CC[C@]43C)[C@@H]2C1,13.68,Active,inactive,inactive,inactive,19.61,inactive,8.42,10.07,inactive,0,67.41,inactive,72.51,inactive,0,Active,inactive
CC1(C)CC[C@]2(C(=O)O)CC[C@]3(C)C(=CC[C@@H]4[C@@]5(C)CC[C@H](OC(=O)CCC(=O)OCCCCOc6no[n+]([O-])c6S(=O)(=O)c6ccccc6)C(C)(C)[C@@H]5CC[C@]43C)[C@@H]2C1,56.35,Active,inactive,inactive,inactive,61.18,inactive,7.52,10.96,inactive,0,98.16,inactive,100,inactive,2.6,Active,inactive
CC1(C)CC[C@]2(C(=O)O)CC[C@]3(C)C(=CC[C@@H]4[C@@]5(C)CC[C@H](OC(=O)CCC(=O)NCCOc6no[n+]([O-])c6S(=O)(=O)c6ccccc6)C(C)(C)[C@@H]5CC[C@]43C)[C@@H]2C1,13.01,Active,inactive,inactive,inactive,16.34,inactive,5.26,8.51,inactive,0,74.53,inactive,66.21,inactive,0,Active,inactive
CC1(C)CC[C@]2(C(=O)O)CC[C@]3(C)C(=CC[C@@H]4[C@@]5(C)CC[C@H](OC(=O)CCC(=O)OCCOCCOc6no[n+]([O-])c6S(=O)(=O)c6ccccc6)C(C)(C)[C@@H]5CC[C@]43C)[C@@H]2C1,67.96,Active,inactive,inactive,inactive,56.43,inactive,9.78,17.32,inactive,0,95.63,inactive,88.65,inactive,2.7,Active,inactive
